Molecules are shown by their SMILES. Where a name gives a salt, the structure may show the parent alone.

One experiment deals with T1, human α1d receptor (Homo sapiens, UniProt P25100).
T1 construct: expressed in transfected cells
T1 sequence (P25100 1-572): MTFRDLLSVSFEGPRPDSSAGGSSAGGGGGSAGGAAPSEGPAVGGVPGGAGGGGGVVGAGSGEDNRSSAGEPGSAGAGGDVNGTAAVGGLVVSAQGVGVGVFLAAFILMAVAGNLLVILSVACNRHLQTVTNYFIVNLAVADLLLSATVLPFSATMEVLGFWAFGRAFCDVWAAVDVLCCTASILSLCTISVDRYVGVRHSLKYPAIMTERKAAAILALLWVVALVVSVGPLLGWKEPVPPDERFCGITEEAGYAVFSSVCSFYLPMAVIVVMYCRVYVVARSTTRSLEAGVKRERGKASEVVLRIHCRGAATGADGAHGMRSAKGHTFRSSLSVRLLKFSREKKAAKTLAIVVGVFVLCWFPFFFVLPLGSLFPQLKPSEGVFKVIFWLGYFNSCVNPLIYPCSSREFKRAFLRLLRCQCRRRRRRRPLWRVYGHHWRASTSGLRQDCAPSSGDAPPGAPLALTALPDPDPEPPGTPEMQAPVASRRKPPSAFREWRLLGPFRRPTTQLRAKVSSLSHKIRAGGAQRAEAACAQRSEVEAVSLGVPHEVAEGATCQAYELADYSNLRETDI
The experiment in a line: Radioligand binding ([3H]prazosin) at cloned human α1d receptor. The following applies: second column headed hα1a (c3); membranes of transfected LM(tk−) cells, [3H]prazosin 0.5 nM; read-out: Binding affinity hα1a. As to the method:
(§1) The activity of compounds at the different human receptors was determined in vitro using cultured cell lines that selectively express the receptor of interest. These cell lines were prepared by transfecting the cloned cDNA or cloned genomic DNA or constructs containing both genomic DNA and cDNA encoding the human α-adrenergic receptors as follows:
α1d Human Adrenergic Receptor
The entire coding region of α1d (1719 bp), including 150 base pairs of 5′ untranslated sequence (5′ UT) and 300 bp of 3′ untranslated sequence (3′ UT), was cloned into the BamHI and ClaI sites of the polylinker-modified eukaryotic expression vector pCEXV-3, called EXJ.HR. The construct involved the ligation of partial overlapping human lymphocyte genomic and hippocampal cDNA clones: 5′ sequence were contained on a 1.2 kb SmaI-XhoI genomic fragment (the vector-derived BamHI site was used for subcloning instead of the internal ninsert-derived SmaI site) and 3′ sequences were contained on an 1.3 kb XhoI-ClaI cDNA fragment (the ClaI site was from the vector polylinker). Stable cell lines were obtained by cotransfection with the plasmid α1A/EXJ (expression vector containing the α1a receptor gene (old nomenclature)) and the plasmid pGCcos3neo (plasmid containing the aminoglycoside transferase gene) into LM(tk−) cells using calcium phosphate technique. The cells were grown, in a controlled environment (37° C., 5% CO2), as monolayers in Dulbecco's modified Eagle's Medium (GIBCO, Grand Island, N.Y.) containing 25 mM glucose and supplemented with 10% bovine calf serum, 100 units/ml penicillin g, and 100 μg/ml streptomycin sulfate. Stable clones were then selected for resistance to the antibiotic G-418 (1 mg/ml), and membranes were harvested and assayed for their ability to bind [^3H]prazosin as described below (see “Radioligand Binding assays”).
The cell line expressing the human α1d receptor used herein was designated L-α1A (old nomenclature) and was deposited with the American Type Culture Collection, 12301 Parklawn Drive, Rockville, Md. 20852, U.S.A. under the provisions of the Budapest Treaty for the International Recognition of the Deposit of Microorganisms for the Purposes of Patent Procedure. The cell line expressing the human α1d receptor, was accorded ATCC Accession No. CRL 11138, and was deposited on Sep. 25, 1992.
(§2) Radioligand Binding Assays for α1 Receptors
(§3) Transfected cells from culture flasks were scraped into 5 ml of 5 mM Tris-HCl, 5 mM EDTA, pH 7.5, and lysed by sonication. The cell lysates were centrifuged at 1000 rpm for 5 min at 4° C., and the supernatant was centrifuged at 30,000×g for 20 min at 4° C. The pellet was suspended in 50 mM Tris-HCl, 1 mM MgCl2, and 0.1% ascorbic acid at pH 7.5. Binding of the α1 antagonist [^3H]prazosin (0.5 nM, specific activity 76.2 Ci/mmol) to membrane preparations of LM(tk−) cells was done in a final volume of 0.25 ml and incubated at 37° C. for 20 min. Nonspecific binding was determined in the presence of 10 μM phentolamine. The reaction was stopped by filtration through GF/B filters using a cell harvester. Inhibition experiments, routinely consisting of 7 concentrations of the tested compounds, were analyzed using a non-linear regression curve-fitting computer program to obtain Ki values.

Another experiment deals with T2, human α1a receptor (Homo sapiens, UniProt P35348).
T2 construct: expressed in transfected cells
T2 sequence (P35348 1-466): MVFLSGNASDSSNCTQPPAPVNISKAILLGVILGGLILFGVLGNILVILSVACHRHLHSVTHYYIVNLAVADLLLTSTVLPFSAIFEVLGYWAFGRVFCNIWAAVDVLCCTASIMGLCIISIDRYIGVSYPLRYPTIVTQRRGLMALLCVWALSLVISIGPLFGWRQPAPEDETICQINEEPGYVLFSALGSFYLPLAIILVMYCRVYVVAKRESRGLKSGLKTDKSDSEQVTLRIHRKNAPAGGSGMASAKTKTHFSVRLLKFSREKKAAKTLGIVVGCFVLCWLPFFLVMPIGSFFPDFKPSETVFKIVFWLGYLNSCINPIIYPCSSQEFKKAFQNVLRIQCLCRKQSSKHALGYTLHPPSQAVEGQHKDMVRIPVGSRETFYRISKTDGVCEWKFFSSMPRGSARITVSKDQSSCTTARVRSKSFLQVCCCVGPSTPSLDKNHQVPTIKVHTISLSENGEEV
The experiment in a line: Radioligand binding ([3H]prazosin) at cloned human α1a receptor. As to conditions: hα1a; membranes of transfected LM(tk−) cells, [3H]prazosin 0.5 nM; read-out: Binding affinity hα1a. As to the method:
as §1
α1a Human Adrenergic Receptor
The entire coding region of α1a (1401 bp), including 400 base pairs of 5′ untranslated sequence (5′ UT) and 200 bp of 3′ untranslated sequence (3′ UT), was cloned into the KpnI site of the polylinker-modified pCEXV-3-derived eukaryotic expression vector, EXJ.RH. The construct involved ligating three partial overlapping fragments: a 5′ 0.6 kb HincII genomic clone, a central 1.8 EcoRI hippocampal cDNA clone,. and a 3′ 0.6 Kb PstI genomic clone. The hippocampal cDNA fragment overlaps with the 5′ and 3′ genomic clones so that the HincII and PstI sites at the 5′ and 3′ ends of the cDNA clone, respectively, were utilized for ligation. This full-length clone was cloned into the KpnI site of the expression vector, using the 5′ and 3′ KpnI sites of the fragment, derived from vector (i.e., pBluescript) and 31-untranslated sequences, respectively. Stable cell lines were selected as described above. The stable cell line expressing the human α1a receptor used herein was designated L-α1C (old nomenclature) and was deposited with the American Type Culture Collection, 12301 Parklawn Drive, Rockville, Md. 20852, U.S.A. under the provisions of the Budapest Treaty for the International Recognition of the Deposit of Microorganisms for the Purposes of Patent Procedure. The cell line expressing the human α1a receptor was accorded Accession No. CR 11140, on Sep. 25, 1992.
as §2, §3

Take `O=C1OCC2=C1C(c1ccc(F)c(F)c1)N(C(=O)NCCCN1CCC(c3ccccn3)CC1)C(=O)N2` (single isomer, unassigned; (+)) [Compound 8, (+)-1-3-{[4-(3,4-Difluorophenyl)-2,5-dioxo-1,2,5,7-tetrahydro-4H-furo[3,4-d]-pyrimidine-3-carbonyl]amino}-propyl-4-(2-pyridyl)-piperidine]: the values for the Ki at human α1d receptor and at human α1a receptor were 1970 nM and 3 nM, respectively.

`COCC1=C(C(=O)OC)[C@H](c2ccc(F)c(F)c2)N(C(=O)NCCCO)C(=O)N1` [Compound 1, (+)-1,2,3,6-Tetrahydro-1-(3-hydroxypropyl)carboxamido-5-methoxycarbonyl-4-methoxymethyl-6-(3,4-difluorophenyl)-2-oxo-pyrimidine]: the Ki at human α1d receptor was more than 50000 nM; on human α1a receptor it was 260 nM.

Take `COCC1=C(C(=O)OC)[C@H](c2ccc(F)c(F)c2)N(C(=O)NCCCN2CCC(c3cccc[n+]3[O-])CC2)C(=O)N1` [Compound 2, (+)-1,2,3,6-Tetrahydro-1-{N-[4-(2-pyridyl)piperidin-1-yl]propyl}carboxamido-5-methoxycarbonyl-4-methoxymethyl-6-(3,4-difluorophenyl)-2-oxopyrimidine-pyridine-N-oxide hydrochloride]: the figures for the Ki on human α1d receptor and at human α1a receptor were 3700 nM and 0.3 nM, respectively.

In the case of `COCC1=C(C(=O)OC)[C@H](c2ccc(F)c(F)c2)N(C(=O)NCCC[n+]2ccc(-c3ccccn3)cc2)C(=O)N1` [Compound 3, 4-(2-Pyridyl)-1-{3-[5-carboxymethyl-4-methoxymethyl-2-oxo-6(S)-(3,4-difluorphenyl)-1,2,3,6-tetrahydropyrimidin-1-yl]carboxyaminopropyl}pyridinium chloride], the Ki on human α1d receptor is more than 5000 nM; at human α1a receptor, 212 nM.

For the molecule `COC(=O)C1=C(CO)NC(=O)N(C(=O)NCCCN2CCC(c3ccccn3)CC2)[C@H]1c1ccc(F)c(F)c1` [Compound 7, (+)-1,2,3,6-Tetrahydro-1-{N-[4-(2-pyridyl)piperidin-1-yl]propyl}carboxamido-5-methoxycarbonyl-4-hydroxymethyl-6-(3,4-difluorophenyl)-2-oxopyrimidine], the Ki on human α1d receptor amounted to 1200 nM; at human α1a receptor, 0.8 nM.

As to `O=C(O)CCNC(=O)N1C(=O)NC2=C(C(=O)OC2)[C@@H]1c1ccc(F)c(F)c1` [Compound 9], the Ki on human α1d receptor was more than 5000 nM; on human α1a receptor it was more than 500 nM.

Values taken from patent US6680323B2, “Dihydropyrimidines and uses thereof” (Synaptic Pharmaceutical Corporation, priority 1998, dated 2004).
